Reference: ChEMBL document CHEMBL3792292, “Development of a potent and selective FLT3 kinase inhibitor by systematic expansion of a non-selective fragment-screening hit” (Bioorg Med Chem Lett, 2016)

Assays:
[1] = biological target: Tyrosine-protein kinase ABL1 (Homo sapiens) (UniProt P00519); assay: Inhibition of full length human N-terminal His-tagged ABL (2 to 1130 residues) expressed in baculovirus expression system using fluorescence labelled ABLtide as substrate at 50 times IC50 by electrophoretic mobility shift assay relative to control
[2] = biological target: Insulin-like growth factor 1 receptor (Homo sapiens) (UniProt P08069); assay: Inhibition of human N-terminal GST-tagged IGF1R cytoplasmic domain (959 to 1367 residues) expressed in baculovirus expression system using fluorescence labelled IRS1 as substrate at 50 times IC50 by electrophoretic mobility shift assay relative to control
[3] = biological target: T1, Tyrosine-protein kinase ITK/TSK (Homo sapiens) (UniProt Q08881); assay: Inhibition of full length human N-terminal GST-tagged ITK (2 to 620 residues) expressed in baculovirus expression system using fluorescence labelled srctide as substrate at 50 times IC50 by electrophoretic mobility shift assay relative to control
T1 sequence (whole entry): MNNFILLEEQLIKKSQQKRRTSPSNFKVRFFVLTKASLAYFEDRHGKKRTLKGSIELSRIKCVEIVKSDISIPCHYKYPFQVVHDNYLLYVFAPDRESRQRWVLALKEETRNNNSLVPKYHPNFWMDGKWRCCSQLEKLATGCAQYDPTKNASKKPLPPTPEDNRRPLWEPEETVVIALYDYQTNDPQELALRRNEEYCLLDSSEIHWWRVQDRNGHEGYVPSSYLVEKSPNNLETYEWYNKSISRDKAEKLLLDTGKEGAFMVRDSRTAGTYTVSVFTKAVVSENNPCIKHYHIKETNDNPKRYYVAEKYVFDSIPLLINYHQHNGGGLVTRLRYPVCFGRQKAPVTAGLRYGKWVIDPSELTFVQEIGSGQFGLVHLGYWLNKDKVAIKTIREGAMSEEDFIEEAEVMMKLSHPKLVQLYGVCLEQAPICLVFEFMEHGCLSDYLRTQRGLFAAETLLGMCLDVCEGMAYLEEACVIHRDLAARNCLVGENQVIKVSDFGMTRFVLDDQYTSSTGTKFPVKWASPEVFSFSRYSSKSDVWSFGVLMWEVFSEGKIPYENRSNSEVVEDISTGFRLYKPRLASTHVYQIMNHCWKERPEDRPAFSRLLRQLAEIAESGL

[4] = biological target: High affinity nerve growth factor receptor (Homo sapiens, UniProt P04629); assay: Inhibition of human N-terminal GST-tagged TRKA cytoplasmic domain (436 to 790 residues) expressed in baculovirus expression system using fluorescence labelled CSKtide as substrate at 50 times IC50 by electrophoretic mobility shift assay relative to control
[5] = biological target: T2, Testis-specific serine/threonine-protein kinase 1 (Homo sapiens) (UniProt Q9BXA7); assay: Inhibition of full length human N-terminal GST-tagged TSSK1 (1 to 367 residues) expressed in baculovirus expression system using fluorescence labelled GS peptide substrate at 50 times IC50 by electrophoretic mobility shift assay relative to control
T2 sequence (whole entry): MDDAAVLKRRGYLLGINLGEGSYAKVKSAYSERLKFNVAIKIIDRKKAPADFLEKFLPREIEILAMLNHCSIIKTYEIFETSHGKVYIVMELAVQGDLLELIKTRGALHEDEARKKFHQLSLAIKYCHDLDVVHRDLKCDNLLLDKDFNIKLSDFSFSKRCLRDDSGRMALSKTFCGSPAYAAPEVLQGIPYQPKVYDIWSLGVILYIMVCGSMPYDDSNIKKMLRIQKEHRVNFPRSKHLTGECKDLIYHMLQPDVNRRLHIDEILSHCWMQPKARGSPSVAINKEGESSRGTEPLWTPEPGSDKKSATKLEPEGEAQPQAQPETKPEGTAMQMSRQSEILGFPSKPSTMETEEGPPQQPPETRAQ

[6] = biological target: Casein kinase I isoform epsilon (Homo sapiens) (UniProt P49674); assay: Inhibition of human N-terminal GST-tagged CK1epsilon catalytic domain (1 to 348 residues) expressed in baculovirus expression system using fluorescence labelled CKtide as substrate at 50 times IC50 by electrophoretic mobility shift assay relative to control
[7] = biological target: Mitogen-activated protein kinase 9 (Homo sapiens) (UniProt P45984); assay: Inhibition of human N-terminal GST-tagged JNK2 catalytic domain (1 to 364 residues) expressed in Escherichia coli using fluorescence labelled modified Erktide as substrate at 50 times IC50 by electrophoretic mobility shift assay relative to control
[8] = biological target: Serine/threonine-protein kinase pim-1 (Homo sapiens) (UniProt P11309); assay: Inhibition of full length human N-terminal His-tagged PIM1 (1 to 313 residues) expressed in baculovirus expression system using fluorescence labelled S6K2 peptide substrate at 50 times IC50 by electrophoretic mobility shift assay relative to control
[9] = biological target: cAMP-dependent protein kinase catalytic subunit alpha (Homo sapiens) (UniProt P17612); assay: Inhibition of full length human N-terminal GST-tagged PKACalpha (1 to 351 residues) expressed in baculovirus expression system using fluorescence labelled kemptide as substrate at 50 times IC50 by electrophoretic mobility shift assay relative to control
[10] = biological target: T3, Serine/threonine-protein kinase D2 (Homo sapiens) (UniProt Q9BZL6); assay: Inhibition of full length human N-terminal GST-tagged PKD2 (1 to 878 residues) expressed in baculovirus expression system using fluorescence labelled GS peptide substrate at 50 times IC50 by electrophoretic mobility shift assay relative to control
T3 sequence (whole entry): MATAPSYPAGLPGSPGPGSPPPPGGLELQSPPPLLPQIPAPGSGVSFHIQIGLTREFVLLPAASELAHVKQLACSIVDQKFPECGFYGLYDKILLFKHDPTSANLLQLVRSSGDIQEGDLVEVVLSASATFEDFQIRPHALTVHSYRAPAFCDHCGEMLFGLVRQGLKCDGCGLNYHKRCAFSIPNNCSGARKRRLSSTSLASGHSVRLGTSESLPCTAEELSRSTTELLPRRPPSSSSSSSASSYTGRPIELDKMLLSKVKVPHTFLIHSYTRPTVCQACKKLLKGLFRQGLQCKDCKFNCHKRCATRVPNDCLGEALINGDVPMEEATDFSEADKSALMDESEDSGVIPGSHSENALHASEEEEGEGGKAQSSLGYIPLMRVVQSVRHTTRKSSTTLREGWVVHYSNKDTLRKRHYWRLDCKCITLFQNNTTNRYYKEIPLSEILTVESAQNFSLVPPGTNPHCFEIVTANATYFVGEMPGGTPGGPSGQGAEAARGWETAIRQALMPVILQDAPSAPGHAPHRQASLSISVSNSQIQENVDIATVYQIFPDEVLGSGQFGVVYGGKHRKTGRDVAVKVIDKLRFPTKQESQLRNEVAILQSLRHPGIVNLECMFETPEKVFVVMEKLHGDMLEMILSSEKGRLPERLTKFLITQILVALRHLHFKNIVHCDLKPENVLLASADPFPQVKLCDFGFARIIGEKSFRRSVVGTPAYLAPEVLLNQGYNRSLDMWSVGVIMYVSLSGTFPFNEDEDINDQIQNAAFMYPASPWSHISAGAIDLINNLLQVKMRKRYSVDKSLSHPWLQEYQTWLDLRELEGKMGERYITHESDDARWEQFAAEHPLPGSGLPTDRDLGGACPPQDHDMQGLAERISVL

O=C(Nc1ccc(CN2CCN(c3ccccc3)CC2)cc1)c1n[nH]c2ccccc12
inhibition [1]: 3.4%
inhibition [2]: 0.5%
inhibition [3]: 37.4%
inhibition [4]: 80.5%
inhibition [5]: 1%
inhibition [6]: 19.3%
inhibition [7]: -1.1%
inhibition [8]: 6%
inhibition [9]: -1.4%
inhibition [10]: 4.5%

O=C(Nc1ccc(C(=O)N2CCN(c3ccccc3)CC2)cc1)c1n[nH]c2ccccc12
inhibition [1]: 3.9%
inhibition [2]: 1.9%
inhibition [3]: 50.8%
inhibition [4]: 90.1%
inhibition [5]: 4.3%
inhibition [6]: 21.3%
inhibition [7]: 9.3%
inhibition [8]: 3%
inhibition [9]: 2.7%
inhibition [10]: 5.7%

O=C(Nc1ccccc1)c1n[nH]c2ccccc12
inhibition [1]: 5.3%
inhibition [2]: 18.2%
inhibition [3]: 79.7%
inhibition [4]: 95%
inhibition [5]: 12.9%
inhibition [6]: 51.3%
inhibition [7]: 24.5%
inhibition [8]: 3.1%
inhibition [9]: 3.1%
inhibition [10]: 1.3%
